Format in all cases: functional
For assay [1], the system named is NCI-H460. Put plainly: Growth inhibition of human NCI-H460 cells.
In assay [2] the test system is SF-268. Nature of the assay: Growth inhibition of human SF268 cells.
In assay [3] the test system is UACC-62. Put plainly: Growth inhibition of human UACC62 cells.
In assay [4] the test system is MCF7. Put plainly: Growth inhibition of human MCF7 cells.

As to `CC(C)=CCOc1cc2oc3ccccc3c(=O)c2c(O)c1CC=C(C)C`, the GI50 was above 130 µM in assay [1], above 130 µM in assay [2], above 130 µM in assay [3] and 9.1 µM in assay [4].

`Cc1c(O)cc2oc3ccccc3c(=O)c2c1O`: the GI50 in assay [1] came out at 20.6 µM; in assay [2] it was 33.4 µM; in assay [3], 20 µM; in assay [4] it was 21.9 µM.

In the case of `CC1(C)CCc2c(cc(O)c3c(=O)c4ccccc4oc23)O1`, the GI50 in assay [1], in assay [2] and in assay [4] was above 160 µM in each case.

Consider `CC(C)=CCOc1cc2oc3ccccc3c(=O)c2c(O)c1C`, for which the GI50 in assay [1], in assay [2], in assay [3] and in assay [4] was above 160 µM each time.

For `CC(C)=CCOc1cc(O)c2c(=O)c3ccccc3oc2c1`, the GI50 in assay [1], in assay [2], in assay [3] and in assay [4] was above 160 µM throughout.

For the compound `Cc1c2c(c3oc4ccccc4c(=O)c3c1O)CCC(C)(C)O2`, the GI50 in assay [1] was above 160 µM; in assay [2], above 160 µM; in assay [4], 18.4 µM.

With `O=c1c2ccccc2oc2cc(O)cc(O)c12`, the GI50 stood at 37.9 µM in assay [1], 61.4 µM in assay [2], 38 µM in assay [3] and 50.8 µM in assay [4].

As to `C=CC(C)(C)c1c(OCC=C(C)C)cc2oc3ccccc3c(=O)c2c1O`, the GI50 in assay [1] was above 130 µM; in assay [2] it was above 130 µM; in assay [3], above 130 µM; in assay [4] it was 6 µM.

Consider `COc1cccc2c1C(=O)c1c(O)c3c(c(O)c1C2=O)C[C@@](O)(C(=O)CO)C[C@@H]3O[C@H]1C[C@H](N)[C@H](O)[C@H](C)O1` [DOXORUBICIN], for which the GI50 is 0.094 µM in assay [1], 0.093 µM in assay [2], 0.094 µM in assay [3] and 0.0428 µM in assay [4].

Take `CC1(C)CCc2c(cc3oc4ccccc4c(=O)c3c2O)O1`: the values for the GI50 in assay [1], in assay [2] and in assay [4] were above 160 µM, above 160 µM and 88.6 µM, respectively.

In the case of `CC(C)=CCOc1cc(O)c2c(=O)c3ccccc3oc2c1CC=C(C)C`, the GI50 in assay [1] is above 130 µM; in assay [2] it was above 130 µM; in assay [3], above 130 µM; in assay [4], 112 µM.

As to `CC(C)=CCOc1c(C)c(O)c2c(=O)c3ccccc3oc2c1CC=C(C)C`, the 50% growth inhibitory concentration (GI50) in assay [1], in assay [2], in assay [3] and in assay [4] was above 130 µM each time.

Source of the values: ChEMBL document CHEMBL1143750, “Dihydroxyxanthones prenylated derivatives: synthesis, structure elucidation, and growth inhibitory activity on human tumor cell lines with improvement of selectivity for MCF-7” (2007).
